2 molecules from article PMC11992225, “Antibacterial compounds against non-growing and intracellular bacteria” (npj Antimicrobials and Resistance, 2025) can be followed below.

Usually MIC stands for the lowest concentration that inhibits growth of the organism. By IC50 is commonly meant the concentration that inhibits the measured activity by half. A higher IC50 goes with a need for much substance.

Converted amounts (≈) assume the structure as drawn. “And” between values parts separate entries of the source, which are not always exact repeats. Equal values may be shown once. Read-outs that look alike come from different tables or passages of the source.

The subject of one assay is S. aureus DSM2569. The assay is described as follows: MIC, standard microdilution assay, growing S. aureus. The conditions noted are these: Staphylococcus aureus, DSM2569; S. aureus; CA-MHB pH 7.4; read-out: MIC (μM) CA-MHB. It is filed as cell-based, Staphylococcus aureus. A digest of the protocol:
(§1)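 MICs come from microdilution in CA-MHB/40 mM HEPES pH 7.4 for the UPEC, Pseudomonas and Staphylococcus strains, and in TSB for Shigella. UPEC also tested in LPM/30 mM MES pH 5.5.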
Background: Broth dilution looks for growth in wells or tubes with falling amounts of substance.

A further assay relates to E. coli CFT073 (UPEC). The assay is described as follows: MIC, standard microdilution assay, growing UPEC. It is filed as cell-based, Escherichia coli. The conditions noted are these: Escherichia coli, E. coli. In outline: as §1
The test system of assay [1] is intracellular S. flexneri 5a M90T in TC7 cells. The assay is described as follows: microbe, parasite or virus in culture. It is filed as cell-based, Shigella flexneri. The settings on record: for IC50: Shigella flexneri, TC7, 14 h.
The next assay relates to non-growing UPEC CFT073. The assay is described as follows: Dose-dependent killing analysis (CFU spot-plating) of stationary-phase UPEC. It is filed as cell-based, Escherichia coli. The conditions noted are these: for log10(CFU/ml) after treatment: individual replicates. In outline:
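Killing assessed by CFU counts: overnight 37 °C LB agar spot plates (10 μl drops of 10-fold PBS dilutions) scored at the lowest dilution with distinct colonies. Samples were compound-treated non-growing UPEC CFT073, 200 μl per well. Performed as three biological replicates.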

Where [2] appears, read: pH 7.4, CA-MHB, read-out: MIC (μM) CA-MHB.
[3] abbreviates: TC7 cells infected with GFP-expressing S. flexneri, 14 h treatment.

With `COc1c(N2CCNC(C)C2)c(F)cc2c(=O)c(C(=O)O)cn(C3CC3)c12` (stereo not drawn) [Gatifloxacin], the MIC in the assay on S. aureus DSM2569 was found to be 0.5 µM (≈ 0.188 µg/mL). Also, the MIC with E. coli CFT073 (UPEC) (setting [2]) was found to be 0.125 µM (≈ 0.0469 µg/mL). Further, in assay [1], it took 34 nM to reach half-maximal inhibition (IC50). Also, the “Fluorescence intensity (RFU), Mean, 0.5 x MIC” value in assay [1] (TC7 cells infected with GFP-expressing S. flexneri, 14 h treatment, 0.5 x MIC) was determined as 7621.42 RFU. Also, in assay [1] (setting [3]), the “Fluorescence intensity (RFU), Mean, 2 x MIC” value was 3709.33 RFU; the “Fluorescence intensity (RFU), Mean, 4 x MIC” value stood at 3006.58 RFU; the “Fluorescence intensity (RFU), Mean, 8 x MIC” value was determined as 2924.83 RFU; the “Fluorescence intensity (RFU), Mean, 16 x MIC” value was 2191.44 RFU. In addition, in assay [1] (setting [3]), the “Fluorescence intensity (RFU), Mean, 32 x MIC” value turned out to be 1768.58 RFU and the “Fluorescence intensity (RFU), Mean, MIC” value worked out at 5214.92 RFU. Also, the “bactericidal effect against stationary-phase UPEC cultures” value in the assay on non-growing UPEC CFT073 (20 µM, preliminary experiments) is reported as “bactericidal effects”.

`CO/N=C1\CN(c2nc3c(cc2F)c(=O)c(C(=O)O)cn3C2CC2)CC1CN` (stereo not drawn) [Gemifloxacin]: the MIC in the assay on S. aureus DSM2569 worked out at 0.125 µM (≈ 0.0487 µg/mL); in the assay with E. coli CFT073 (UPEC) (LPM pH 5.5, read-out: MIC), 0.25 µM (≈ 0.0973 µg/mL); in the assay with E. coli CFT073 (UPEC) (setting [2]), 0.025 µM (≈ 0.00973 µg/mL). Further, the IC50 in assay [1] is 22 nM. Also, in assay [1] (setting [3]), the “Fluorescence intensity (RFU), Mean, 2 x MIC” value worked out at 4953.61 RFU. For the same molecule, the “Fluorescence intensity (RFU), Mean, 4 x MIC” value in assay [1] (setting [3]) is given as 3661.36 RFU. Moreover, in assay [1] (setting [3]), the “Fluorescence intensity (RFU), Mean, 8 x MIC” value is listed as 3159.39 RFU. In assay [1] (setting [3]), the “Fluorescence intensity (RFU), Mean, 16 x MIC” value is on record as 3090.56 RFU. In assay [1] (setting [3]), the “Fluorescence intensity (RFU), Mean, 32 x MIC” value is reported as 2706.11 RFU. Also, in assay [1] (setting [3]), the “Fluorescence intensity (RFU), Mean, MIC” value was determined as 6688.44 RFU. Moreover, the “log10(CFU/ml) after treatment” value is 9.342 log10(CFU/ml) and 9.204 log10(CFU/ml) and 8.505 log10(CFU/ml) in the assay on non-growing UPEC CFT073 (E. coli in 1:4 CA-MHB (pH 7.4), concentration 0.25); 8.845 log10(CFU/ml) and 8.778 log10(CFU/ml) and 8.000 log10(CFU/ml) with non-growing UPEC CFT073 (E. coli in 1:4 CA-MHB (pH 7.4), concentration 0.5); 8.699 log10(CFU/ml) and 8.079 log10(CFU/ml) and 7.301 log10(CFU/ml) with non-growing UPEC CFT073 (E. coli in 1:4 CA-MHB (pH 7.4), concentration 1); 8.230 log10(CFU/ml) and 7.602 log10(CFU/ml) and 7.301 log10(CFU/ml) with non-growing UPEC CFT073 (E. coli in 1:4 CA-MHB (pH 7.4), concentration 2.5); 7.903 log10(CFU/ml) and 7.415 log10(CFU/ml) and 7.322 log10(CFU/ml) in the assay on non-growing UPEC CFT073 (E. coli in 1:4 CA-MHB (pH 7.4), concentration 5); 8.146 log10(CFU/ml) and 7.041 log10(CFU/ml) and 6.602 log10(CFU/ml) with non-growing UPEC CFT073 (E. coli in 1:4 CA-MHB (pH 7.4), concentration 10). Moreover, the “log10(CFU/ml) after treatment” value with non-growing UPEC CFT073 (E. coli in LPM (pH 5.5), concentration 0.25) was 6.778 log10(CFU/ml) and 7.146 log10(CFU/ml) and 8.322 log10(CFU/ml); in the assay with non-growing UPEC CFT073 (E. coli in LPM (pH 5.5), concentration 0.5) it was 7.000 log10(CFU/ml) and 7.255 log10(CFU/ml) and 8.301 log10(CFU/ml); in the assay on non-growing UPEC CFT073 (E. coli in LPM (pH 5.5), concentration 1), 7.041 log10(CFU/ml) and 7.362 log10(CFU/ml) and 8.079 log10(CFU/ml); in the assay with non-growing UPEC CFT073 (E. coli in LPM (pH 5.5), concentration 2.5), 6.778 log10(CFU/ml) and 7.255 log10(CFU/ml) and 8.230 log10(CFU/ml); in the assay with non-growing UPEC CFT073 (E. coli in LPM (pH 5.5), concentration 5), 7.230 log10(CFU/ml) and 7.380 log10(CFU/ml) and 8.146 log10(CFU/ml); in the assay on non-growing UPEC CFT073 (E. coli in LPM (pH 5.5), concentration 10), 7.176 log10(CFU/ml) (2×) and 8.230 log10(CFU/ml).
